Measured values as given in patent US6660728B2, “Thienyl substituted acylguanidines as inhibitors of bone resorption and vitronectin receptor antagonists” (Aventis Pharma Deutschland GmbH, priority 1998, dated 2003).

Columns and labels:
[1] = biological target: T1, Human Vitronectin Receptor (VnR) αvβ3 (Homo sapiens, UniProt P05106+P06756); assay: K/VnR test: inhibition of the binding of kistrin to human vitronectin receptor (ELISA)
T1 construct: Human vitronectin receptor was isolated from human placenta using the method of Pytela et al; from tissue; host or cells: human placenta
T1 sequence (P06756 31-889 limits assumed): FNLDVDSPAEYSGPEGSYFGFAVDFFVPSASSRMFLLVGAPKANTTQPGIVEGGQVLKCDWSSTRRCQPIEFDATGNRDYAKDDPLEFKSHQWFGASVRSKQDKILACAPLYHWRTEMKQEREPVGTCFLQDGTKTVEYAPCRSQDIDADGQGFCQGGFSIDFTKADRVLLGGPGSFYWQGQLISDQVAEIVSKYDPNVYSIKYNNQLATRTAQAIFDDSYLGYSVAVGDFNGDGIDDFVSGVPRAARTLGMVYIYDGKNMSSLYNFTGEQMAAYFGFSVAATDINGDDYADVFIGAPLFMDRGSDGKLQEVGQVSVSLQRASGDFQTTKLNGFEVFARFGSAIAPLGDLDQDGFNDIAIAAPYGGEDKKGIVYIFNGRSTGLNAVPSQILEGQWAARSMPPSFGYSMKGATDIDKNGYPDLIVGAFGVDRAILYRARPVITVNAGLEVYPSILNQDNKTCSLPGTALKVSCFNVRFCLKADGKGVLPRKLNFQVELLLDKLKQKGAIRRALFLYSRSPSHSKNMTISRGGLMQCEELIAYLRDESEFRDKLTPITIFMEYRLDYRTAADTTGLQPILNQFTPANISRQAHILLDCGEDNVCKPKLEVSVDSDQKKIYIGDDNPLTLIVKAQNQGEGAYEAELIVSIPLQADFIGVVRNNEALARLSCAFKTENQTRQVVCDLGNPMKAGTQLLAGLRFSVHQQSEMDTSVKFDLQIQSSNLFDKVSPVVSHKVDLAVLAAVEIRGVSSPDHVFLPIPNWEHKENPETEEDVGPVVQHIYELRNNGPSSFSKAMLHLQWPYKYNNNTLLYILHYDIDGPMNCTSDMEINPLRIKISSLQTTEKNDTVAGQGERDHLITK
T1 sequence (P06756 891-1048 limits assumed): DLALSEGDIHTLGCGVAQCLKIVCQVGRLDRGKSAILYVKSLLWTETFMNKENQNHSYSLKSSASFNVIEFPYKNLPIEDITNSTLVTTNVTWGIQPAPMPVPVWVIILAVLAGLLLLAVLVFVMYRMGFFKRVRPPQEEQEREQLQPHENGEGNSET
T1 sequence (P05106 27-788): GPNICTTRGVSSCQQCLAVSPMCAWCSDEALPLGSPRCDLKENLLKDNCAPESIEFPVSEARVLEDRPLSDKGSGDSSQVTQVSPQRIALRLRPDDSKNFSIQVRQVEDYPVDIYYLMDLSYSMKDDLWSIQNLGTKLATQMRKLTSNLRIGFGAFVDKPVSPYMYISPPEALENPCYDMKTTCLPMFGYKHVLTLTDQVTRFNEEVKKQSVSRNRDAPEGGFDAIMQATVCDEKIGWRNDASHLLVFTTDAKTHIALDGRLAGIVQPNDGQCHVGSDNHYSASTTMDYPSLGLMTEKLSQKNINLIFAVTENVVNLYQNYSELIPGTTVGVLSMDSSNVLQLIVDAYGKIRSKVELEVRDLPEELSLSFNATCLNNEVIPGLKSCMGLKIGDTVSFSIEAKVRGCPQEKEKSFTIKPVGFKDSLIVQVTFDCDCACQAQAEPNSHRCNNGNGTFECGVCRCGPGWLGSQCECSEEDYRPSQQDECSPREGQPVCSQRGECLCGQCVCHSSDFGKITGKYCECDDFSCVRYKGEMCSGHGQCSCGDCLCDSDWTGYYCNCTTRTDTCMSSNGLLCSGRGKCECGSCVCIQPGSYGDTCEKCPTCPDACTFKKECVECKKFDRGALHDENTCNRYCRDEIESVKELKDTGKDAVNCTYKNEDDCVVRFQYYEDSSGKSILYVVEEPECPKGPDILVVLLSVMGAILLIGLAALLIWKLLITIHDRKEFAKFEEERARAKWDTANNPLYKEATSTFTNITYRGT

melting point	IC50 [1] [µM]	SMILES
130 °C	–	O=C(O)C[C@H](NC(=O)c1ccc(CCC(=O)NC2=NCCCN2)s1)c1ccc2c(c1)OCO2
–	> 10	O=C(/C=C/c1ccc(C(=O)NC[C@H](NC(=O)OCc2ccccc2)C(=O)O)s1)NC1=NCCCN1 [Example 14, (2S)-2-Benzyloxycarbonylamino-3-((5-(2-(1,4,5,6-tetrahydropyrimidin-2-ylcarbamoyl)-vinyl)-thiophene-2-carbonyl)-amino)-propionic Acid]
160 °C (dec.)	–	CC(C)OC(=O)[C@H](CNC(=O)c1ccc(CCC(=O)NC2=NCCCN2)s1)NC(=O)OCC12CC3CC(CC(C3)C1)C2
210 °C (dec.)	–	CC(C)COC(=O)[C@H](CNC(=O)c1ccc(CCC(=O)NC2=NCCCN2)s1)NC(=O)OCC12CC3CC(CC(C3)C1)C2
